Measured values reported in ChEMBL document CHEMBL1144196, “Carbonic anhydrase activators: kinetic and X-ray crystallographic study for the interaction of D- and L-tryptophan with the mammalian isoforms I-XIV” (Bioorg Med Chem, 2008).

Columns and labels:
[1] = biological target: Carbonic anhydrase 12 (Homo sapiens) (UniProt O43570); assay: Activation of human recombinant CA12 after 15 mins by stopped-flow CO2 hydration assay
[2] = biological target: Carbonic anhydrase 2 (Homo sapiens) (UniProt P00918); assay: Activation of human recombinant CA2 after […] by stopped-flow CO2 hydration assay
[3] = biological target: Carbonic anhydrase 13 (Mus musculus) (UniProt Q9D6N1); assay: Activation of mouse recombinant CA13 after 15 mins by stopped-flow CO2 hydration assay
[4] = biological target: Carbonic anhydrase 14 (Homo sapiens) (UniProt Q9ULX7); assay: Activation of human recombinant CA14 after 15 mins by stopped-flow CO2 hydration assay
[5] = biological target: Carbonic anhydrase 7 (Homo sapiens) (UniProt P43166); assay: Activation of human recombinant CA7 after 15 mins by stopped-flow CO2 hydration assay
[6] = biological target: Carbonic anhydrase 5A, mitochondrial (Homo sapiens) (UniProt P35218); assay: Activation of human recombinant CA5A after 15 mins by stopped-flow CO2 hydration assay
[7] = biological target: Carbonic anhydrase 5B, mitochondrial (Homo sapiens) (UniProt Q9Y2D0); assay: Activation of human recombinant CA5B after 15 mins by stopped-flow CO2 hydration assay
[8] = biological target: Carbonic anhydrase 9 (Homo sapiens) (UniProt Q16790); assay: Activation of human recombinant CA9 after 15 mins by stopped-flow CO2 hydration assay

Sequence of Carbonic anhydrase 5A, mitochondrial (Homo sapiens) (P35218 whole entry): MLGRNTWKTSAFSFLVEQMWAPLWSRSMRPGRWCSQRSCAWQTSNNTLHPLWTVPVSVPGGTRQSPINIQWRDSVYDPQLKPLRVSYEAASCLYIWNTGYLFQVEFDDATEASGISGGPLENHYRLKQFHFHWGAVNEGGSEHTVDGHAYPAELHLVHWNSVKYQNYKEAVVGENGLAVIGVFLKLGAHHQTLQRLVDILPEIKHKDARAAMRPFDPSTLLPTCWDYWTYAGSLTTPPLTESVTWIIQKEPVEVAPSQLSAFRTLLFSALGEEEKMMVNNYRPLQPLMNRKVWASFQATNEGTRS
Sequence of Carbonic anhydrase 14 (Homo sapiens) (Q9ULX7 whole entry): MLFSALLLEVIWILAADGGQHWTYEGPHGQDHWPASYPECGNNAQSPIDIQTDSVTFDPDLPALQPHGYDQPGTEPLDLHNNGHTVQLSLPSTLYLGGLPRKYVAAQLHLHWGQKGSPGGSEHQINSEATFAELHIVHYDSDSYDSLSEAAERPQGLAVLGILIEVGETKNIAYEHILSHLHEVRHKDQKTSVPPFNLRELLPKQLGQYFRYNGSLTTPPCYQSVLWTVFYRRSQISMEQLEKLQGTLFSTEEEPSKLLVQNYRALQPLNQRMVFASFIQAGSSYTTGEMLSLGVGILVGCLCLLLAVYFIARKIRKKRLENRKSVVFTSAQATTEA
Sequence of Carbonic anhydrase 7 (Homo sapiens) (P43166 whole entry): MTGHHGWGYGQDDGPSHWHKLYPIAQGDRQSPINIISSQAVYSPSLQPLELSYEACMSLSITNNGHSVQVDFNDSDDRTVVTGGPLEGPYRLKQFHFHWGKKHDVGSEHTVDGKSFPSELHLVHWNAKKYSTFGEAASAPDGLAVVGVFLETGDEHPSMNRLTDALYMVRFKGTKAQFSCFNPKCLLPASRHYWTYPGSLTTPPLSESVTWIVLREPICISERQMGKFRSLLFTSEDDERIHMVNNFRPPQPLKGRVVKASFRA
Sequence of Carbonic anhydrase 12 (Homo sapiens) (O43570 whole entry): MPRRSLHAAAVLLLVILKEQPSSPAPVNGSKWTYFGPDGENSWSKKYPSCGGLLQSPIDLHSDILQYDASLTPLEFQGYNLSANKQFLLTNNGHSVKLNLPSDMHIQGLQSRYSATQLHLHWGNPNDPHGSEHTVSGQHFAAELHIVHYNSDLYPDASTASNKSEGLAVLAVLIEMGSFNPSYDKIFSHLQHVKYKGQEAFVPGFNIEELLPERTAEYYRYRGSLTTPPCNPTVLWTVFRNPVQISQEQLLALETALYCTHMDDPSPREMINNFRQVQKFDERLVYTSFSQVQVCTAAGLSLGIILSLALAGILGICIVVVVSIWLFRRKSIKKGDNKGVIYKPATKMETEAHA
Sequence of Carbonic anhydrase 13 (Mus musculus) (Q9D6N1 whole entry, looked up): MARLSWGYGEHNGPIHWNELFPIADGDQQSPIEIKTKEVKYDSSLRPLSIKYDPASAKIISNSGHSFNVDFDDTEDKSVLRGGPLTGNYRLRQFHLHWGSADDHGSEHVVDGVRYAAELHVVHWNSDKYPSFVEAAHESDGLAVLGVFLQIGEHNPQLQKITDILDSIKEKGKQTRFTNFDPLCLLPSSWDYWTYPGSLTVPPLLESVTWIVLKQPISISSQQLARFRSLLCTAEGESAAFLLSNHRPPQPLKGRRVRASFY
Sequence of Carbonic anhydrase 5B, mitochondrial (Homo sapiens) (Q9Y2D0 whole entry): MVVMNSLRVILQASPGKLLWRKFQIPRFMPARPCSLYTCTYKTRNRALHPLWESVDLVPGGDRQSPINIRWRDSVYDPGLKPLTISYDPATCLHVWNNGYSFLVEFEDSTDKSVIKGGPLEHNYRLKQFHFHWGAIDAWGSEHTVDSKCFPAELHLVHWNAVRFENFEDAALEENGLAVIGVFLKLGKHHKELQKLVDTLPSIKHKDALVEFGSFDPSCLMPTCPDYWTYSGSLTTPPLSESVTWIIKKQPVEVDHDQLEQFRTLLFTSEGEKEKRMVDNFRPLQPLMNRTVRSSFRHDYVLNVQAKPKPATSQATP

Ka [1] [µM] | Ka [2] [µM] | Ka [3] [µM] | Ka [4] [µM] | Ka [5] [µM] | Ka [6] [µM] | Ka [7] [µM] | Ka [8] [µM] | SMILES
26 | 1.13 | 16 | 16 | 57 | 1.13 | 0.89 | 37 | N[C@@H](Cc1c[nH]c2ccccc12)C(=O)O
28 | 0.37 | 0.81 | 18 | 39 | 1.24 | 1.35 | 43 | N[C@H](Cc1c[nH]c2ccccc12)C(=O)O
0.41 | – | – | 36 | 60 | 63 | – | 0.87 | CNC[C@@H](O)c1ccc(O)c(O)c1
